Laboratory results reported in patent US4457929A, “3-Quaternary ammonium methyl)-substituted cephalosporin derivatives” (Bristol-Myers Company, priority 1982, dated 1984).

Experiments:
[1] = test system: Penicillinsensitive S. aureus (5 strains); experiment: MIC by two-fold serial agar dilution, group (G+)-Ia; format: cell-based; conditions: Mueller-Hinton agar, penicillin-sensitive S. aureus, Example 1: two different batches; for MIC: Staphylococcus aureus, read-out: Geometric Mean of MIC (G+)-Ia
Description: (§1) The preferred compounds of Formula I are those in which R^1 is hydrogen, R^2 is methyl, R^3 is methyl or ethyl, and R^4 is methyl, ethyl, 2-hydroxyethyl, 2-(dimethylamino)ethyl, allyl or pyridylmethyl. Particularly preferred compounds are those in which R^1 is hydrogen, R^2 and R^3 are methyl, and R^4 is methyl, 2-hydroxyethyl or allyl. The most preferred compound is that in which R^1 is hydrogen and R^2, R^3 and R^4 are methyl. In the primary evaluation of the preferred compounds of this invention, the Minimum Inhibitory Concentrations (MIC's) of the compounds were determined by the two-fold serial agar dilution method in Mueller-Hinton agar against 32 strains of test organisms in six groups.
(G+)Ia: Penicillinsensitive S. aureus (5 strains)

[2] = test system: Penicillinresistant S. aureus (5 strains); experiment: MIC by two-fold serial agar dilution, group (G+)-Ib; format: cell-based; conditions: Staphylococcus aureus, Mueller-Hinton agar, penicillin-resistant S. aureus, Example 1: two different batches, read-out: Geometric Mean of MIC (G+)-Ib
Description: as §1
(G+)Ib: Penicillinresistant S. aureus (5 strains)

[3] = test system: Cephalothinsensitive E. coli (2 strains), Kl. pneumoniae (1 strain) and Pr. mirabilis (2 strains); experiment: MIC by two-fold serial agar dilution, group (G-)-Ia; format: cell-based; conditions: Mueller-Hinton agar, cephalothin-sensitive, 5 strains, Example 1: two different batches; for MIC: read-out: Geometric Mean of MIC (G-)-Ia
Description: as §1
(G-)Ia: Cephalothinsensitive E. coli (2 strains), Kl. pneumoniae (1
strain) and Pr. mirabilis (2 strains)

[4] = test system: Cephalothinresistant E. coli (3 strains) and Kl. pneumoniae (3 strains); experiment: MIC by two-fold serial agar dilution, group (G-)-Ib; format: cell-based; conditions: cephalothin-resistant, 6 strains, Example 1: two different batches; for MIC: Escherichia coli, read-out: Geometric Mean of MIC (G-)-Ib, Mueller-Hinton agar
Description: as §1
(G-)Ib: Cephalothinresistant E. coli (3 strains) and Kl. pneumoniae (3

[5] = test system: Pr. morganii (1 strain), Ent. cloacae (2 strains) and Ser. marcescens (2 strains); experiment: MIC by two-fold serial agar dilution, group (G-)-II; format: cell-based; conditions: Mueller-Hinton agar; 5 strains; Example 1: two different batches; read-out: Geometric Mean of MIC (G-)-II
Description: as §1
(G-)II: Pr. morganii (1 strain), Ent. cloacae (2 strains) and Ser.

[6] = test system: Ps. aeruginosa (6 strains); experiment: MIC by two-fold serial agar dilution, group (G-)-III; format: cell-based; conditions: Mueller-Hinton agar, Example 1: two different batches; for MIC: Pseudomonas aeruginosa, read-out: Geometric Mean of MIC (G-)-III
Description: as §1
(G-)III: Ps. aeruginosa (6 strains)

[7] = Mouse blood levels following a single intramuscular injection; format: in vivo; conditions: im, mice, 20 mg/kg
Protocol: The absorption of the most preferred Compound Ia (prepared in Example 1) was determined in mice following a single intramuscular injection of the test compound (dissolved in 0.1M phosphate buffer; pH 7) at a dosage of 20 mg/kg. Blood samples were collected from the orbital sinuses into heparinized capillary tubes and assayed in Mueller-Hinton medium using Morganella morganii A9695 as the test organism. The blood levels at various time intervals, the half-life values (t1/2) and the areas under the curve (AUC) are shown in Table 2.

S. pyogenes (6 strains) = experiment: In vitro activity against fastidious bacteria in GC agar: S. pyogenes; format: cell-based; conditions: Streptococcus pyogenes, read-out: Geometric Mean of MIC
Protocol: (§2) The in vitro activity of the most preferred Compound Ia against 31 strains of fastidious bacteria was determined in GC agar, and the results are shown in Table 3.

S. pneumoniae (6) = experiment: In vitro activity against fastidious bacteria in GC agar: S. pneumoniae; format: cell-based; conditions: Streptococcus pneumoniae, 6 strains, read-out: Geometric Mean of MIC
Protocol: as §2

N. gonorrhoeae (4) = experiment: In vitro activity against fastidious bacteria in GC agar: N. gonorrhoeae; format: cell-based; conditions: Neisseria gonorrhoeae, 4 strains, read-out: Geometric Mean of MIC
Protocol: as §2

N. meningitidis (5) = experiment: In vitro activity against fastidious bacteria in GC agar: N. meningitidis; format: cell-based; conditions: Neisseria meningitidis, 5 strains, read-out: Geometric Mean of MIC
Protocol: as §2

[8] = test system: H. influenzae (7) (ampicillin sensitive); experiment: In vitro activity against fastidious bacteria in GC agar: H. influenzae (ampicillin sensitive); format: cell-based; conditions: Haemophilus influenzae, 7 strains, read-out: Geometric Mean of MIC
Protocol: as §2

[9] = test system: H. influenzae (3) (ampicillin resistant); experiment: In vitro activity against fastidious bacteria in GC agar: H. influenzae (ampicillin resistant); format: cell-based; conditions: Haemophilus influenzae, 3 strains, read-out: Geometric Mean of MIC
Protocol: as §2

Compound | MIC [1] [µg/mL] | MIC [2] [µg/mL] | MIC [3] [µg/mL] | MIC [4] [µg/mL] | MIC [5] [µg/mL] | MIC [6] [µg/mL] | other results
CO/N=C(\C(=O)NC1C(=O)N2C(C(=O)[O-])=C(C[N+](C)(C)Cc3cccnc3)CSC12)c1csc(N)n1 (centres unmarked) [Example 4, 7-[(Z)-2-(2-Aminothiazol-4-yl)-2-methoxyiminoacetamido]-3-[N,N-dimethyl-N-(3-pyridylmethyl)ammonium]methyl-3-cephem-4-carboxylate] | 2.1 | 4.7 | 0.057 | 0.22 | 0.69 | 7.1 | 
CO/N=C(\C(=O)NC1C(=O)N2C(C(=O)[O-])=C(C[N+](C)(C)C)CSC12)c1csc(N)n1 (centres unmarked) [Example 1, 7-[(Z)-2-(2-Aminothiazol-4-yl)-2-methoxyiminoacetamido]-3-(trimethylammonium)methyl-3-cephem-4-carboxylate] | 1.1 | 3.6 | 0.033 | 0.25 | 0.69 | 3.2 | Geometric Mean of MIC (G+)-Ia [1]: 1.6 µg/mL; Geometric Mean of MIC (G-)-Ia [3]: 0.029 µg/mL; Geometric Mean of MIC (G-)-Ib ([4]; Mueller-Hinton agar): 0.20 µg/mL; Geometric Mean of MIC (G-)-III [6]: 4.0 µg/mL; AUC [7]: 10000 ng·h/mL; half-life [7]: 24 min; concentration at 10 min ([7]; 10 minutes, read-out: Blood levels at minutes after administration: 10): 14000 ng/mL; concentration at 20 min ([7]; 20 minutes, read-out: Blood levels at minutes after administration: 20): 12000 ng/mL; concentration at 0.5 h ([7]; 30 minutes, read-out: Blood levels at minutes after administration: 30): 8800 ng/mL; concentration at 40 min ([7]; 40 minutes, read-out: Blood levels at minutes after administration: 40): 7500 ng/mL; concentration at 50 min ([7]; 50 minutes, read-out: Blood levels at minutes after administration: 50): 4700 ng/mL; concentration at 1 h ([7]; 60 minutes, read-out: Blood levels at minutes after administration: 60): 4400 ng/mL; concentration at 1.5 h ([7]; 90 minutes, read-out: Blood levels at minutes after administration: 90): 1500 ng/mL; concentration at 2 h ([7]; 120 minutes, read-out: Blood levels at minutes after administration: 120): 740 ng/mL; MIC (S. pyogenes (6 strains)): 0.013 µg/mL; MIC (S. pneumoniae (6)): 0.013 µg/mL; MIC (N. gonorrhoeae (4)): 0.013 µg/mL; MIC (N. meningitidis (5)): 0.016 µg/mL; MIC [8]: 0.013 µg/mL; MIC [9]: 0.2 µg/mL
C=CC[N+](C)(C)CC1=C(C(=O)[O-])N2C(=O)C(NC(=O)/C(=N\OC)c3csc(N)n3)C2SC1 (centres unmarked) [Example 3, 7-[(Z)-2-(2-Aminothiazol-4-yl)-2-methoxyiminoacetamido]-3-(N,N-dimethyl-N-allylammonium)methyl-3-cephem-4-carboxylate] | 1.4 | 3.6 | 0.044 | 0.22 | 0.69 | 5.6 | 
CCO/N=C(\C(=O)NC1C(=O)N2C(C(=O)[O-])=C(C[N+](C)(C)C)CSC12)c1csc(N)n1 (centres unmarked) [Example 8, 7-[(Z)-2-(2-Aminothiazol-4-yl)-2-ethoxyiminoacetamido]-3-(trimethylammonium)methyl-3-cephem-4-carboxylate] | 2.1 | 5.5 | 0.087 | 0.5 | 1.4 | 7.9 | 
CO/N=C(\C(=O)NC1C(=O)N2C(C(=O)[O-])=C(C[N+](C)(C)CCO)CSC12)c1csc(N)n1 (centres unmarked) [Example 2, 7-[(Z)-2-(2-Aminothiazol-4-yl)-2-methoxyiminoacetamido]-3-[N,N-dimethyl-N-(2-hydroxyethyl)ammonium]methyl-3-cephem-4-carboxylate] | 1.6 | 4.7 | 0.038 | 0.18 | 0.6 | 3.5 | 
